Earlier results as cited in patent US11324751B1 (Janssen Pharmaceutica NV, priority 2020, dated 2022).

water solubility: extreme low water solubility
SMILES: CCCCCCCCCCCCCCCC(=O)OC1CCCn2c1nc(C)c(CCN1CCC(c3noc4cc(F)ccc34)CC1)c2=O (racemic) [paliperidone palmitate, (=)-3-[2-[4-(6-fluoro-1,2-benzisoxazol-3-yl)-1-piperidinyl]ethyl]-6,7,8,9-tetrahydro-2-methyl-4-oxo-4H-pyrido[1,2-c]pyrimidin-9-yl hexadecanoate]
